Source: the supplement of paper PMC10307832

Columns and labels:
Assay in all cases: relative viability (nuclei count vs DMSO), 5 days (fraction); higher = more cells survive
[1] = compound: Nc1ccn([C@@H]2O[C@H](CO)[C@@H](O)C2(F)F)c(=O)n1 [Gemcitabine] + O=C(CCCCCCC(=O)Nc1ccccc1)NO [Vorinostat] (partner 1 µM)
Procedure, shortened: (§1)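 Dosing by pin tool came one day after lung cancer cell lines were seeded in 1536-well plates, using either one drug or a fixed anchor-drug dose plus five library-drug doses (not always all listed) in √10 steps. After 5 days, nuclei were counted on 4× images. Relative viability is treated-well nuclei count divided by vehicle-well nuclei count, and values are medians of duplicate plates.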

[2] = compound: Nc1ccn([C@@H]2O[C@H](CO)[C@@H](O)C2(F)F)c(=O)n1 [Gemcitabine] + Nc1nc2[nH]cc(CCc3ccc(C(=O)N[C@@H](CCC(=O)O)C(=O)O)cc3)c2c(=O)[nH]1 [Pemetrexed] (partner 0.2 µM)
Procedure, shortened: as §1

[3] = compound: Nc1ccn([C@@H]2O[C@H](CO)[C@@H](O)C2(F)F)c(=O)n1 [Gemcitabine] + Cc1nc(Nc2ncc(C(=O)Nc3c(C)cccc3Cl)s2)cc(N2CCN(CCO)CC2)n1 [Dasatinib] (partner 0.075 µM)
Procedure, shortened: as §1

[4] = compound: Nc1ccn([C@@H]2O[C@H](CO)[C@@H](O)C2(F)F)c(=O)n1 [Gemcitabine] + CC(=O)c1c(C)c2cnc(Nc3ccc(N4CCNCC4)cn3)nc2n(C2CCCC2)c1=O [Palbociclib] (partner 0.5 µM)
Procedure, shortened: as §1

Cell Line	relative viability ([1]; first compound 0.001 µM)	relative viability ([1]; first compound 0.003162 µM)	relative viability ([1]; first compound 0.01 µM)	relative viability ([1]; first compound 0.03162 µM)	relative viability ([1]; first compound 0.1 µM)	relative viability ([2]; first compound 0.001 µM)	relative viability ([2]; first compound 0.003162 µM)	relative viability ([2]; first compound 0.01 µM)	relative viability ([2]; first compound 0.03162 µM)	relative viability ([2]; first compound 0.1 µM)	relative viability ([3]; first compound 0.001 µM)	relative viability ([3]; first compound 0.003162 µM)	relative viability ([3]; first compound 0.01 µM)	relative viability ([3]; first compound 0.03162 µM)	relative viability ([3]; first compound 0.1 µM)	relative viability ([4]; first compound 0.001 µM)	relative viability ([4]; first compound 0.003162 µM)	relative viability ([4]; first compound 0.01 µM)	relative viability ([4]; first compound 0.03162 µM)	relative viability ([4]; first compound 0.1 µM)
NCI-H2087	0.862	0.174	0.304	0.0713	0.109	0.666	0.581	0.263	0.113	0.105	0.746	0.499	0.169	0.0893	0.0871	0.266	0.197	0.193	0.165	0.136
NCI-H2126	0.841	0.837	0.707	0.515	0.275	0.628	0.742	0.628	0.577	0.3	0.647	0.6	0.548	0.389	0.19	0.323	0.367	0.312	0.29	0.281
NCI-H2170	0.829	0.843	0.538	0.113	0.105	0.289	0.259	0.314	0.127	0.119	0.609	0.673	0.415	0.114	0.104	0.408	0.394	0.266	0.184	0.13
NCI-H2228	0.429	0.374	0.226	0.0768	0.217	0.348	0.332	0.166	0.092	0.112	0.529	0.3	0.118	0.111	0.087	0.734	0.229	0.142	0.135	0.106
NCI-H2342	0.732	0.56	0.452	0.346	0.289	0.821	0.698	0.748	0.412	0.337	0.312	0.277	0.282	0.233	0.293	0.484	0.527	0.46	0.433	0.393
NCI-H2347	0.584	0.453	0.507	0.327	0.281	0.43	0.391	0.409	0.357	0.366	0.291	0.304	0.257	0.22	0.195	0.412	0.432	0.404	0.364	0.325
NCI-H2405	1.03	0.784	0.543	0.243	0.197	1	0.91	0.552	0.228	0.184	0.2	0.196	0.199	0.151	0.159	0.527	0.483	0.422	0.203	0.188
NCI-H3122	0.926	1.09	0.618	0.202	0.098	0.196	0.206	0.191	0.138	0.105	0.852	0.89	0.588	0.0797	0.0782	0.195	0.177	0.175	0.119	0.148
